Results: patent publication US20260184663A1, “INDENE COMPOUNDS, PHARMACEUTICAL COMPOSITIONS THEREOF, AND THEIR THERAPEUTIC APPLICATIONS” (NucMito Pharmaceuticals co. Ltd., priority 2022, published 2026)

Legend:
Type in all cases: cell-based
[1] = tested on: MDA-MB-231 (breast cancer); assay: Antiproliferative activity (CCK-8 cell viability), MDA-MB-231; conditions: Homo sapiens, 72 h, read-out: Antiproliferative activity in cancerous cells, MDA-MB-231 (inhibition of cell growth); for inhibition at 3.3 µM: Compound concentration: 3.3 μM; for inhibition at 10 µM: Compound concentration: 10 μM; for inhibition at 30 µM: Compound concentration: 30 μM
Outline: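 In this CCK-8 viability assay, MDA-MB-231 cells maintained in Dulbecco's modified Eagle's medium containing 10% fetal bovine serum were placed in 96-well plates (2,000-5,000 cells/well) and treated with compound for 72 h at 37° C. A 4 h incubation with 10 μL CCK-8 followed, plates were read at 450 nm, and viability was expressed against DMSO vehicle wells across replicates.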

[2] = tested on: SW480 (colon cancer); assay: Antiproliferative activity (CCK-8 cell viability), SW480; conditions: Homo sapiens, 72 h, read-out: Antiproliferative activity in cancerous cells, SW480 (inhibition of cell growth); for inhibition at 3.3 µM: Compound concentration: 3.3 μM; for inhibition at 10 µM: Compound concentration: 10 μM; for inhibition at 30 µM: Compound concentration: 30 μM
Outline: (§1)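 Cells were seeded at 2,000-5,000/well (HeLa in MEM, HepG2 and SW480 in DMEM, A549 in F-12K, all with 10% FBS) and treated with compound at 3.3, 10 or 30 μM for 72 h at 37° C. CCK-8 was added for 4 h, absorbance was read at 450 nm, and viability was expressed relative to DMSO-treated wells.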

[3] = tested on: HepG2 (liver cancer); assay: Antiproliferative activity (CCK-8 cell viability), HepG2; conditions: Homo sapiens, 72 h, read-out: Antiproliferative activity in cancerous cells, HepG2 (inhibition of cell growth); for inhibition at 3.3 µM: Compound concentration: 3.3 μM; for inhibition at 10 µM: Compound concentration: 10 μM; for inhibition at 30 µM: Compound concentration: 30 μM
Outline: as §1

[4] = tested on: HeLa (cervical cancer); assay: Antiproliferative activity (CCK-8 cell viability), HeLa; conditions: Homo sapiens, 72 h, read-out: Antiproliferative activity in cancerous cells, HELA (inhibition of cell growth); for inhibition at 3.3 µM: Compound concentration: 3.3 μM; for inhibition at 10 µM: Compound concentration: 10 μM; for inhibition at 30 µM: Compound concentration: 30 μM
Outline: as §1

[5] = tested on: A549 (lung adenocarcinoma); assay: Antiproliferative activity (CCK-8 cell viability), A549; conditions: Homo sapiens, 72 h, read-out: Antiproliferative activity in cancerous cells, A549 (inhibition of cell growth); for inhibition at 3.3 µM: Compound concentration: 3.3 μM; for inhibition at 10 µM: Compound concentration: 10 μM; for inhibition at 30 µM: Compound concentration: 30 μM
Outline: as §1

[6] = tested on: A431 (epidermoid carcinoma); assay: Antiproliferative activity (CCK-8 cell viability), A431; conditions: Homo sapiens, 72 h, read-out: Antiproliferative activity in cancerous cells, A431 (inhibition of cell growth); for inhibition at 3.3 µM: A-431, Compound concentration: 3.3 μM; for inhibition at 10 µM: A-431, Compound concentration: 10 μM; for inhibition at 30 µM: A-431, Compound concentration: 30 μM
Outline: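 Cell viability of compound-treated A431 cells was measured with a Cell Counting Kit-8. Each well received 10 μL of CCK-8 after 72 h of compound exposure, followed by 4 h incubation at 37° C. and a 450 nm plate-reader measurement. Percent viability was calculated relative to DMSO controls across replicates.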

[7] = tested on: B16F10 (malignant melanoma); assay: Antiproliferative activity (CCK-8 cell viability), B16F10; conditions: Mus musculus, 72 h, read-out: Antiproliferative activity in cancerous cells, B16F10 (inhibition of cell growth); for inhibition at 3.3 µM: B16-F10, Compound concentration: 3.3 μM; for inhibition at 10 µM: B16-F10, Compound concentration: 10 μM; for inhibition at 30 µM: B16-F10, Compound concentration: 30 μM
Outline: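 Attached B16F10 cells in 96-well plates were incubated with compound at 37° C for 72 h, followed by 10 μL CCK-8 reagent per well and a further 4 h incubation. A multi-well plate reader measured absorbance at 450 nm. Percent viability across replicates was calculated against DMSO vehicle-treated cells.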

SMILES	inhibition at 3.3 µM [1]	inhibition at 10 µM [1]	inhibition at 30 µM [1]	inhibition at 3.3 µM [2]	inhibition at 10 µM [2]	inhibition at 30 µM [2]	inhibition at 3.3 µM [3]	inhibition at 10 µM [3]	inhibition at 30 µM [3]	inhibition at 3.3 µM [4]	inhibition at 10 µM [4]	inhibition at 30 µM [4]	inhibition at 3.3 µM [5]	inhibition at 10 µM [5]	inhibition at 30 µM [5]	inhibition at 3.3 µM [6]	inhibition at 10 µM [6]	inhibition at 30 µM [6]	inhibition at 3.3 µM [7]	inhibition at 10 µM [7]	also measured
CC1=C(CC(=O)O)c2cc(F)ccc2/C1=C/c1cccc(COc2ccc(F)c(F)c2)c1 [E9, 2-[(1E)-1-({3-[(3,4-Difluorophenoxy)methyl]phenyl}methylidene)-5-fluoro-2-methyl-1H-inden-3-yl]acetic acid]	≥ 50%	≥ 50%	≥ 50%	≥ 50%	≥ 50%	≥ 50%	30 to 50%	≥ 50%	≥ 50%	< 30%	30 to 50%	≥ 50%	30 to 50%	30 to 50%	≥ 50%	< 30%	≥ 50%	≥ 50%	30 to 50%	≥ 50%	inhibition at 30 µM [7]: ≥ 50%
CC1=C(CC(=O)O)c2cc(F)ccc2/C1=C/c1ccc(Oc2ccc(F)cc2F)cc1 [E17, (E)-2-(1-(4-(2,4-Difluorophenoxy)benzylidene)-5-fluoro-2-methyl-1H-inden-3-yl)acetic acid]	30 to 50%	≥ 50%	≥ 50%	< 30%	≥ 50%	≥ 50%	≥ 50%	≥ 50%	≥ 50%	30 to 50%	≥ 50%	≥ 50%	< 30%	≥ 50%	≥ 50%	< 30%	≥ 50%	≥ 50%	≥ 50%	≥ 50%	inhibition at 30 µM [7]: ≥ 50%
CC1=C(CC(=O)O)c2cc(I)ccc2/C1=C/c1ccc(COCc2ccc(F)cc2)cc1 [E18, (E)-2-(1-(4-(((4-Fluorobenzyl)oxy)methyl)benzylidene)-5-iodo-2-methyl-1H-inden-3-yl)acetic acid]	< 30%	≥ 50%	≥ 50%	< 30%	≥ 50%	≥ 50%	< 30%	≥ 50%	≥ 50%	≥ 50%	≥ 50%	≥ 50%	< 30%	≥ 50%	≥ 50%	≥ 50%	≥ 50%	≥ 50%	30 to 50%	≥ 50%	inhibition at 30 µM [7]: ≥ 50%
COc1ccc(S(=O)(=O)Cc2ccc(/C=C3\C(C)=C(CC(=O)O)c4cc(F)ccc43)cc2)cc1 [E20, (E)-2-(5-Fluoro-1-(4-(((4-methoxyphenyl)sulfonyl)methyl)benzylidene)-2-methyl-1H-inden-3-yl)acetic acid]	< 30%	30 to 50%	≥ 50%	30 to 50%	30 to 50%	≥ 50%	30 to 50%	≥ 50%	≥ 50%	< 30%	≥ 50%	≥ 50%	< 30%	30 to 50%	≥ 50%	30 to 50%	≥ 50%	≥ 50%	< 30%	30 to 50%	inhibition at 30 µM [7]: ≥ 50%
CC1=C(CC(=O)O)c2cc(F)ccc2/C1=C/c1ccc(Oc2ccc(Cl)c(Cl)c2)cc1 [E21, (E)-2-(1-(4-(3,4-Dichlorophenoxy)benzylidene)-5-fluoro-2-methyl-1H-inden-3-yl)acetic acid]	≥ 50%	≥ 50%	≥ 50%	30 to 50%	≥ 50%	≥ 50%	< 30%	≥ 50%	≥ 50%	≥ 50%	≥ 50%	≥ 50%	30 to 50%	≥ 50%	≥ 50%	≥ 50%	≥ 50%	≥ 50%	< 30%	≥ 50%	inhibition at 30 µM [7]: ≥ 50%
CC1=C(CC(=O)O)c2cc(F)ccc2/C1=C/c1ccc(-c2ccc(Cl)cc2)cc1 [E22, (E)-2-(1-((4′-Chloro-[1,1′-biphenyl]-4-yl)methylene)-5-fluoro-2-methyl-1H-inden-3-yl)acetic acid]	≥ 50%	≥ 50%	≥ 50%	30 to 50%	≥ 50%	≥ 50%	≥ 50%	≥ 50%	≥ 50%	30 to 50%	≥ 50%	≥ 50%	30 to 50%	≥ 50%	≥ 50%	30 to 50%	≥ 50%	≥ 50%	≥ 50%	≥ 50%	inhibition at 30 µM [7]: ≥ 50%
CC1=C(CC(=O)O)c2cc(F)c(F)cc2/C1=C/c1ccc(Oc2ccc(F)cc2)cc1 [E23, (E)-2-(5,6-Difluoro-1-(4-(4-fluorophenoxy)benzylidene)-2-methyl-1H-inden-3-yl)acetic acid]	≥ 50%	≥ 50%	≥ 50%	< 30%	≥ 50%	≥ 50%	< 30%	< 30%	≥ 50%	30 to 50%	≥ 50%	≥ 50%	< 30%	< 30%	≥ 50%	30 to 50%	≥ 50%	≥ 50%	< 30%	≥ 50%	inhibition at 30 µM [7]: ≥ 50%
